A short description of data set [1]: In vivo pharmacokinetic test in rats. Also noted: species or system Wistar rats. Conditions: for In vivo pharmacokinetic properties (conclusion): Tables 8 and 9; for clearance / half-life / Vd: iv. The method, then:
Experimental animals: male Wistar rats, 6 rats/compound, body weight 180-220 g, purchased from Shandong University, certificate no.: SCXK ( ? ) 20090001.
Experimental samples: Compound 1, Compound 29 and Compound 30 of the present invention, each of them is prepared according to the methods of the above examples, and dissolved in physiological saline before test.
Administration: as for intravenous push (I.V), Compound 1, Compound 29, Compound 30 were administered in a dose of 5 mg/kg, and a volume of 2 mL/kg; as for intragastric administration (P.O), Compound 1, Compound 29, Compound 30 were administered in a dose of 5 mg/kg, and a volume of 2 mL/kg. The rats were fasted without water deprivation for […] administration, and fed after 4 hours from the administration.
Blood collection: 0 h, 0.083 h, 0.25 h, 0.5 h, 1 h, 2 h, 4 h, 8 h, 24 h, at each time point, about 150 μL of whole blood was collected, centrifuged at 4° C. and 8000 rpm for 6 min using a low-temperature high-speed centrifuge, the separated plasma was frozen and stored at −80° C. in a refrigerator.
Analysis of plasma samples: as for Compound 1, Compound 29, Compound 30, 50 μL of plasma was taken, added with 120 μL internal standard solution (Tolbutamide, 5 ng/mL MeOH solution), subjected to 1500 rpm vortex for 2 min, then centrifuged at 14000 rpm for 5 min, the supernatant was collected, and analyzed by using LC-MS/MS. Calculation formula: absolute bioavailability F %=[AUC]INF(PO)*Dose(IV)/[AUC]INF(IV)*Dose(PO)
Wherein, AUCINF represents area under drug-time curve0→∞; Cmax represents peak drug concentration in blood; Tmax represents a time for reaching peak drug concentration in blood; F % represents absolute bioavailability; CL represents clearance rate; Vss represents apparent volume of distribution; T1/2 represents half-life period.

In data set [2] the test system is gastric acid in pylorus ligated rats. Put plainly: Inhibition effects on gastric acid in pylorus ligated rats. In kind it is in vivo, Wistar rats. Conditions: for Inhibition effect on the gastric acid secretion in pylorus ligated rats (conclusion): in comparison with the solvent group. The method, then: Experimental animals: six-week old clean Wistar rats, male, 140-180 g.
Experimental samples: part of the compounds of the present invention, which structural formula and chemical name are shown in Table 1. […] Before test, these compounds were dissolved with physiological saline.
Pylorus was ligated by passing a suture beneath gastric pylorus, the drugs were immediately administered through duodenum, in which the solvent group was administered with physiological saline in 2 mL/kg, […] The animals were executed after 6 h, laparotomized, esophagus was ligated near to diaphragmatic muscle, whole stomach was taken out, washed to remove blood, stomach contents were poured out, the acidity degree of gastric acid was tested with pH test paper, the stomach contents was then centrifuged at 3000 rpm for 10 min. The volume of the supernatant was metered, and 1 mL of the supernatant was titrated with 0.01 mol/L NaOH solution, phenolphthalein was used as indicator, the volume of NaOH was recorded, and the total acidity degree and total acid output of gastric juice were calculated. Gastric juice total acidity degree (mmol/L)=consumed volume of NaOH solution (mL)*0.01 mol/L (NaOH concentration)/1 mL (supernatant volume)*1000; 1 h total acid output (mmol/h)=total acidity degree (mmol/L)*gastric juice volume (mL)/6 h/1000.

Data set [3] concerns reflux esophagitis in rats. The data set is described as follows: Effects on reflux esophagitis in rats. In kind it is in vivo, Wistar rats. Also noted: Esophagitis index: scale not given here. The note with it: for Esophagitis index / Injury status / Esophagus injury score: 20 mg/kg through duodenum, 5 h; for Esophagitis index: 6 rats per group, average ± SD; for Protection effect on reflux esophagitis in rats (conclusion): in comparison with the model group; for Injury status / Esophagus injury score: individual rats. As for the experimental part:
The rats were etherized, laparotomized, pylorus ligated, and ligated at the part between glandular stomach and rumen. After ligation, the drugs were immediately administered through duodenum, in which the groups of the test samples were administered with test samples in 20 mg/kg, the model group was administered with the same volume of solvent, and the abdomens were then closed. The rats were released to the fasting cage, subjected to fasting and water deprivation for 5 h and then executed by air embolism. The stomach and esophagus were taken out together, fixed with 1% formaldehyde in esophagus for 1 h, and then the injury of esophagus was observed.

[4] abbreviates: Table 5, 20 mg/kg, comparison with Compound 81 as control.
Setting [5] is: Table 4, 30 mg/kg through duodenum, 6 h.
Where [6] appears, read: Table 4, 30 mg/kg through duodenum, 6 h, SD in neighbouring cell.
[7] abbreviates: Table 3, 20 mg/kg through duodenum, 6 h after pylorus ligation.
Setting [8] is: Table 3, 20 mg/kg through duodenum, 6 h after pylorus ligation, average ± SD.
Where [9] appears, read: male, Wistar, rat, in vivo, 5 mg/kg.
Setting [10] is: male, Wistar, rat, in vivo, po, 5 mg/kg.

Values joined by “and” are separate entries in the source; they are usually repeats but may differ in a detail not shown here. Identical values can stand only once. Counter-ions that a name gives are not always drawn. Like-named read-outs stand apart in the source and are kept apart here.

As to `COCCCOc1ccnc(C[S@@+]([O-])c2nc3cc4c(cc3[nH]2)OCC4)c1C` [Compound 30, (R)-2-[[[4-(3-methoxylpropoxy)-3-methyl-2-pyridyl]methyl]sulfinyl]-6,7-dihydro-3H-benzofuro[5,6-d]imidazole], the “In vivo pharmacokinetic properties (conclusion)” value in data set [1] (rats) was “good in vivo pharmacokinetic properties”.
With `COc1c(C)cnc(C[S+]([O-])c2nc3cc4c(cc3[nH]2)OCO4)c1C` (stereo not shown) [Compound 81, reference compound], the Total acidity degree in data set [2] (setting [4]) is listed as 71.27 ± 16.51 mmol/L. This compound also registered an Esophagitis index in data set [3] of 0.83 ± 1.60. Further, in data set [3] (20 mg/kg), the “Protection effect on reflux esophagitis in rats (conclusion)” value is on record as “no protection effect” and the Injury status result was “Normal”. In addition, in data set [3] (20 mg/kg, female rats), the Esophagus injury score was 0 (2×) and 1 (1 score for injury area of 1-25%). Also, the Esophagus injury score in data set [3] (20 mg/kg, male rats) is 4 (4 scores for injury area exceeding 75% or perforation) and 0 (2×).
With `COCCCOc1ccnc(C[S@+]([O-])c2nc3cc4c(cc3[nH]2)OCC4)c1C` [Compound 29, (S)-2-[[[4-(3-methoxylpropoxy)-3-methyl-2-pyridyl]methyl]sulfinyl]-6,7-dihydro-3H-benzofuro[5,6-d]imidazole], in data set [2] (setting [5]), the Gastric juice volume is listed as 3.43 ± 1.11 mL and the “Volume of supernatant of gastric juice” value amounted to 2.70 ± 1.04 mL. For the same compound, in data set [2] (setting [6]), the “Acidity degree (pH value)” value is 3.75 pH value, the Total acid output was found to be 0.0178 mmol/h and the Total acidity degree is 37.85 mmol/L. Besides, in data set [1] (male, Wistar, rat, in vivo, rats, I.V, 5 mg/kg, read-out: CL (converted)), the clearance was 21.4 mL/min/kg. The half-life in data set [1] (male, Wistar, rat, in vivo, rats, I.V, 5 mg/kg, read-out: T½ (converted)) is 13.4 min. Besides, in data set [1] (male, Wistar, rat, in vivo, rats, I.V, 5 mg/kg, read-out: Vss), the Vd is 0.289 L/kg. In addition, in data set [1] (male, Wistar, rat, in vivo, po, rats, P.O 5 mg/kg vs I.V 5 mg/kg, read-out: F % (absolute bioavailability)), the bioavailability (usually dose-corrected exposure relative to a reference, in per cent) was found to be 49.2%. The AUC(0-inf) in data set [1] (male, Wistar, rat, in vivo, po, rats, P.O, 5 mg/kg, read-out: AUCinf) was found to be 1740 ng·h/mL. Besides, the peak concentration (Cmax) (commonly the highest concentration seen after dosing) in data set [1] (male, Wistar, rat, in vivo, po, rats, P.O, 5 mg/kg, read-out: Cmax) was 5780 ng/mL. Moreover, the Tmax (commonly the time at which the peak concentration occurs) in data set [1] (male, Wistar, rat, in vivo, po, rats, P.O, 5 mg/kg, read-out: Tmax) was found to be 4.98 min. Also, in data set [1] (rats, P.O, 5 mg/kg), the “apparent oral clearance (CL/F)” value was 53.77 mL/min/kg. For the same compound, the “In vivo pharmacokinetic properties (conclusion)” value in data set [1] (rats) is listed as “good in vivo pharmacokinetic properties”.
For `COCCCOc1ccnc(C[S+]([O-])c2nc3cc4c(cc3[nH]2)OCCO4)c1C` (stereo not shown) [Compound 6, 2-[[4-(3-methoxylpropoxy)-3-methylpyridin-2-yl]methylsulfinyl]-6,7-dihydro-1H-[1,4]dioxino[2,3-f]benzo[d]imidazole], the “Inhibition effect on the gastric acid secretion in pylorus ligated rats (conclusion)” value in data set [2] (20 mg/kg) is “do not show inhibition effect”. Besides, in data set [3] (20 mg/kg), the “Protection effect on reflux esophagitis in rats (conclusion)” value is recorded as “no protection effect”.
`COCCCOc1ccnc(C[S+]([O-])c2nc3cc4c(cc3[nH]2)OCC4)c1C` (stereo not shown) [Compound 1 (sodium salt)]: in data set [2] (setting [7]), the Gastric juice volume was found to be 3.33 ± 0.97 mL, the Total acid output was determined as 0.0276 ± 0.0194 mmol/h and the Total acidity degree turned out to be 47.85 ± 24.38 mmol/L. In data set [2] (setting [8]), the “Acidity degree (pH value)” value was 3.14 ± 1.31 pH value. In data set [2] (setting [5]), the Gastric juice volume is listed as 3.60 ± 0.88 mL and the “Volume of supernatant of gastric juice” value amounted to 2.92 ± 0.71 mL. For the same compound, in data set [2] (setting [6]), the “Acidity degree (pH value)” value was found to be 3.90 pH value, the Total acid output amounted to 0.0141 mmol/h and the Total acidity degree amounted to 28.98 mmol/L. Also, in data set [2] (setting [4]), the Total acidity degree was 54.52 ± 13.87 mmol/L. In data set [1] (male, Wistar, rat, plasma, rats, I.V, 5 mg/kg, read-out: CL (converted)), the clearance is 32.5 mL/min/kg. Also, in data set [1] (male, Wistar, rat, plasma, rats, I.V, 5 mg/kg, read-out: T½ (converted)), the half-life was 10.3 min. The Vd in data set [1] (male, Wistar, rat, plasma, rats, I.V, 5 mg/kg, read-out: Vss) is 0.255 L/kg. In addition, in data set [1] (male, Wistar, rat, plasma, po, rats, P.O 5 mg/kg vs I.V 5 mg/kg, read-out: F % (absolute bioavailability)), the bioavailability amounted to 26.2%. For the same compound, the AUC(0-inf) in data set [1] (male, Wistar, rat, plasma, po, rats, P.O, 5 mg/kg, read-out: AUCinf) amounted to 677 ng·h/mL. In addition, the Cmax in data set [1] (male, Wistar, rat, plasma, po, rats, P.O, 5 mg/kg, read-out: Cmax) amounted to 1860 ng/mL. In addition, the Tmax in data set [1] (male, Wistar, rat, plasma, po, rats, P.O, 5 mg/kg, read-out: Tmax) fell in the range of 4.98 to 15 min. The compound further displayed an Esophagitis index in data set [3] of 0.00 ± 0.00. In addition, in data set [3] (female rats), the Esophagus injury score came out at 0 and the Injury status entry was “Normal”. In data set [3] (male rats), the Esophagus injury score amounted to 0 and the Injury status result is “Normal”.
`COCCCOc1ccnc(C[S@@+]([O-])c2nc3cc4c(cc3[nH]2)OCC4)c1C` [Compound 30 (sodium salt), (R)-2-[[[4-(3-methoxylpropoxy)-3-methyl-2-pyridyl]methyl]sulfinyl]-6,7-dihydro-3H-benzofuro[5,6-d]imidazole sodium]: in data set [2] (setting [5]), the Gastric juice volume was found to be 3.60 ± 1.30 mL and the “Volume of supernatant of gastric juice” value is reported as 2.87 ± 1.17 mL. Moreover, in data set [2] (setting [6]), the “Acidity degree (pH value)” value is recorded as 6.08 pH value, the Total acid output was 0.0076 mmol/h and the Total acidity degree was 17.21 mmol/L. In data set [1] (setting [9]), the Vd came out at 0.394 L/kg, the clearance was 26.5 mL/min/kg and the half-life is 16.5 min. In data set [1] (setting [10]), the AUC(0-inf) is 1260 ng·h/mL, the CL amounted to 83.5 mL/min/kg, the concentration peaked (Cmax) at 3250 ng/mL and the time to peak (Tmax) lay in the range of 4.98 to 15 min. In data set [1] (setting [10]), this compound showed a bioavailability of 39.3%.
`COc1c(C)cnc(C[S+]([O-])c2nc3cc4[nH]cnc4cc3[nH]2)c1C` (stereo not shown) [Compound 8, 2-[(3,5-dimethyl-4-methoxylpyridin-2-yl)methylsulfinyl]-1H,5H-imidazo[5,4-f]benzo[d]imidazole]: in data set [2] (20 mg/kg), the “Inhibition effect on the gastric acid secretion in pylorus ligated rats (conclusion)” value is given as “do not show inhibition effect”. In data set [2] (setting [7]), the Gastric juice volume stood at 6.10 mL, the Total acid output was determined as 0.1242 mmol/h and the Total acidity degree came out at 120.92 mmol/L. Further, in data set [2] (setting [8]), the “Acidity degree (pH value)” value turned out to be 1.71 pH value.
For `COCCCOc1ccnc(C[S+]([O-])c2nc3cc4c(cc3[nH]2)OCCO4)c1C` (stereo not shown) [Compound 6 (sodium salt)], in data set [2] (setting [7]), the Gastric juice volume came out at 10.28 mL, the Total acid output stood at 0.0807 mmol/h and the Total acidity degree is 103.16 mmol/L. In data set [2] (setting [8]), the “Acidity degree (pH value)” value amounted to 1.82 pH value. Also, the Esophagitis index in data set [3] was found to be 3.00 ± 1.27. Besides, in data set [3] (20 mg/kg, female rats), the Esophagus injury score is 4 (4 scores for injury area exceeding 75% or perforation) and 2 (2 scores for injury area of 25-50%) and 1 (1 score for injury area of 1-25%). The Esophagus injury score in data set [3] (20 mg/kg, male rats) is 3 (3 scores for injury area of 50-75%) and 4 (4 scores for injury area exceeding 75% or perforation) (2×).

Source of the values: patent publication US9315513B2, “Benzimidazole derivatives and their pharmaceutical compositions and uses” (XUANZHU PHARMA CO., LTD., priority 2010, dated 2016).
